Source: PubChem BioAssay (NCI)
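1) Cells in 96-well plates. 2) Compound, 48 h, 5 concentrations. 3) Linear interpolation between surrounding doses. 4) Unreached endpoint = highest concentration. At the GI50, growth is halved. TGI: concentration producing complete growth inhibition.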

Key:
Assay in all cases: DTP human tumour cell line panel, 48 h
[1] = system: HOP-92 NSCLC
[2] = system: HOP-62 NSCLC
[3] = system: SN12C renal
[4] = system: EKVX NSCLC
[5] = system: DMS 114 small cell lung
[6] = system: SNB-19 CNS
[7] = system: CCRF-CEM leukemia
[8] = system: NCI-H522 lung
[9] = system: KM20L2 colon
[10] = system: ACHN renal
[11] = system: SNB-75 CNS
[12] = system: NCI-H23 lung
[13] = system: SK-MEL-2 melanoma
[14] = system: SF-295 CNS
[15] = system: SK-OV-3 ovarian
[16] = system: CAKI-1 renal
[17] = system: TK-10 renal
[18] = system: OVCAR-3 ovarian
[19] = system: A549 NSCLC
[20] = system: UACC-62 melanoma
[21] = system: SF-268 CNS
[22] = system: DLD-1 colon
[23] = system: UACC-257 melanoma
[24] = system: SR leukemia
[25] = system: SNB-78 CNS
[26] = system: HCC-2998 colon
[27] = system: NCI-H460 lung
[28] = system: KM12 colon
[29] = system: 786-0 renal
[30] = system: SK-MEL-5 melanoma
[31] = system: UO-31 renal
[32] = system: SF-539 CNS
[33] = system: OVCAR-4 ovarian
[34] = system: MOLT-4 leukemia
[35] = system: HCT-116 colon
[36] = system: LXFL 529 NSCLC
[37] = system: SW-620 colon
[38] = system: HT29 colon
[39] = system: U251 CNS
[40] = system: NCI-H226 lung
[41] = system: COLO 205 colon
[42] = system: SK-MEL-28 melanoma
[43] = system: HL-60(TB) leukemia
[44] = system: DMS 273 small cell lung
[45] = system: RXF 393 renal
[46] = system: M19-MEL melanoma
[47] = system: HCT-15 colon
[48] = system: A498 renal
[49] = system: IGROV1 ovarian
[50] = system: M14 melanoma
[51] = system: MALME-3M melanoma
[52] = system: OVCAR-8 ovarian
[53] = system: HOP-18 NSCLC
[54] = system: OVCAR-5 ovarian

## O=C(Cc1nc2ccccc2s1)C(=O)Nc1cccc(C(F)(F)F)c1
[1]
  TGI: > 100 µM
[2]
  TGI: > 100 µM
[3]
  TGI: > 100 µM
[4]
  TGI: > 100 µM
[5]
  TGI: > 100 µM
[6]
  TGI: > 100 µM
[7]
  TGI: > 100 µM
[8]
  TGI: > 100 µM
[9]
  TGI: > 100 µM
[10]
  TGI: > 100 µM
[11]
  TGI: > 100 µM
[12]
  TGI: > 100 µM
[13]
  TGI: > 100 µM
[14]
  TGI: > 100 µM
[15]
  TGI: > 100 µM
[16]
  TGI: > 100 µM
[17]
  TGI: > 100 µM
[18]
  TGI: > 100 µM
[19]
  TGI: > 100 µM
[20]
  TGI: > 100 µM
[21]
  TGI: > 100 µM
[22]
  TGI: > 100 µM
[23]
  TGI: > 100 µM
[24]
  TGI: > 100 µM
[25]
  TGI: > 100 µM
[26]
  TGI: > 100 µM
[27]
  TGI: > 100 µM
[28]
  TGI: > 100 µM
[29]
  TGI: > 100 µM
[30]
  TGI: > 100 µM
[31]
  TGI: > 100 µM
[32]
  TGI: > 100 µM
[33]
  TGI: > 100 µM
[34]
  TGI: > 100 µM
[35]
  TGI: > 100 µM
[36]
  TGI: > 100 µM
[37]
  TGI: > 100 µM
[38]
  TGI: > 100 µM
[39]
  TGI: > 100 µM
[40]
  TGI: > 100 µM
[41]
  TGI: > 100 µM
[42]
  TGI: > 100 µM
[43]
  TGI: > 100 µM
[44]
  TGI: > 100 µM
[45]
  TGI: > 100 µM
[46]
  TGI: > 100 µM
[47]
  TGI: > 100 µM
[48]
  TGI: > 100 µM
[49]
  TGI: > 100 µM
[50]
  TGI: > 100 µM
[51]
  TGI: > 100 µM
[52]
  TGI: > 100 µM
[53]
  TGI: > 100 µM

## CCSc1c2ccccc2nc2c(OC)ccc(OC)c12
[1]
  TGI: 56.5 µM
[2]
  TGI: 97.2 µM
[4]
  TGI: > 100 µM
[6]
  TGI: 72.4 µM
[7]
  TGI: > 100 µM
[8]
  TGI: > 100 µM
[14]
  TGI: 66.2 µM
[15]
  TGI: 63.2 µM
[17]
  TGI: 85 µM
[54]
  TGI: 97.1 µM
[19]
  TGI: > 100 µM
[20]
  TGI: 37.9 µM
[21]
  TGI: 55.6 µM
[23]
  TGI: 42.8 µM
[24]
  TGI: 62.5 µM
[25]
  TGI: 56.7 µM
[27]
  TGI: 41.7 µM
[28]
  TGI: 63.5 µM
[31]
  TGI: 59.8 µM
[34]
  TGI: 73 µM
[35]
  TGI: 37.9 µM
[38]
  TGI: 63.4 µM
[39]
  TGI: 44.9 µM
[40]
  TGI: 55.7 µM
[42]
  TGI: 40 µM
[43]
  TGI: 52.9 µM
[44]
  TGI: 47.9 µM
[45]
  TGI: 33.2 µM
[46]
  TGI: 37.1 µM
[48]
  TGI: 81.7 µM
[49]
  TGI: 63.4 µM
[50]
  TGI: 95.8 µM
[52]
  TGI: 44.9 µM

## O=C([O-])C([O-])C([O-])C(=O)[O-].[Co+3].c1ccc(-c2ccnc3c2ccc2c(-c4ccccc4)ccnc23)cc1.c1ccc(-c2ccnc3c2ccc2c(-c4ccccc4)ccnc23)cc1.c1ccc(-c2ccnc3c2ccc2c(-c4ccccc4)ccnc23)cc1
[8]
  TGI: 0.128 µM
[9]
  TGI: 0.291 µM
[11]
  TGI: > 100 µM
[16]
  GI50: 0.0339 µM
  TGI: 0.235 µM
[54]
  TGI: 1.65 µM
[20]
  TGI: 0.407 µM
[22]
  TGI: 1.6 µM
[24]
  TGI: 0.207 µM
[31]
  TGI: 0.0823 µM
[40]
  TGI: 0.27 µM
[42]
  TGI: 1.96 µM
